Data from patent publication US6965033B2, “Bisamidate phosphonate prodrugs” (Metabasis Therapeutics, Inc., priority 1999, dated 2005).
Counter-ions that a name gives are not always drawn.

What was measured:
[1] = target: T1, rat liver FBPase (Rattus norvegicus, UniProt P19112); assay: Inhibition of Rat Liver FBPase; assay type: biochemical; conditions: read-out: IC50 (rlFBPase)
T1 construct: made in house; host or cells: E. coli BL21
T1 sequence (P19112 2-363 limits assumed): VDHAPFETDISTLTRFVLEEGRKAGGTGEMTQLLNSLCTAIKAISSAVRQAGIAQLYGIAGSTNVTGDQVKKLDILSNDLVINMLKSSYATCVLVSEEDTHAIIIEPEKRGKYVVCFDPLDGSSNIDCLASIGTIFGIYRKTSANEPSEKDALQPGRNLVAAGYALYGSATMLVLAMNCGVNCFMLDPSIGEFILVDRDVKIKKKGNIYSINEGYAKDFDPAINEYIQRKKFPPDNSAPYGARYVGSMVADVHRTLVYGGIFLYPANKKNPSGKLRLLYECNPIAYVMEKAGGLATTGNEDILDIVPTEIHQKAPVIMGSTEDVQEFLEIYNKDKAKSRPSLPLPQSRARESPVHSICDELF
Protocol: E. coli strain BL21 transformed with a human liver FBPase-encoding plasmid was obtained from Dr. M. R. El-Maghrabi at the State University of New York at Stony Brook. The enzyme was typically purified from 10 liters of recombinant E. coli culture as described (M. Gidh-Jain et al., 1994, The Journal of Biological Chemistry 269, pp 27732-27738). Enzymatic activity was measured spectrophotometrically in reactions that coupled the formation of product (fructose 6-phosphate) to the reduction of dimethylthiazoldiphenyltetrazolium bromide (MTT) via NADP^+ and phenazine methosulfate (PMS), using phosphoglucose isomerase and glucose 6-phosphate dehydrogenase as the coupling enzymes. Reaction mixtures (200 μl) were made up in 96-well microtitre plates, and consisted of 50 mM Tris-HCl, pH 7.4, 100 mM KCl, 5 mM EGTA, 2 mM MgCl2, 0.2 mM NADP, 1 mg/ml BSA, 1 mM MTT, 0.6 mM PMS, 1 unit/ml phosphoglucose isomerase, 2 units/ml glucose 6-phosphate dehydrogenase, and 0.150 mM substrate (fructose 1,6-bisphosphate). Inhibitor concentrations were varied from 0.01 μM to 10 μM. Reactions were started by the addition of 0.002 units of pure hlFBPase, and were monitored for 7 minutes at 590 nm in a Molecular Devices Plate Reader (37° C.).
E. coli strain BL21 transformed with a rat liver FBPase-encoding plasmid was obtained from Dr. M. R. El-Maghrabi at the State University of New York at Stony Brook. Recombinant FBPase was purified as described (El-Maghrabi, M. R., and Pilkis, S. J. (1991) BioChem. Biophys. Res. Commun. 176, 137-144) The enzyme assay was identical to that described above for human liver FBPase.

[2] = target: T2, human liver FBPase (Homo sapiens, UniProt P09467); assay: Inhibition of Human Liver FBPase; assay type: biochemical; conditions: read-out: IC50 (hlFBPase)
T2 construct: made in house; host or cells: E. coli BL21
T2 sequence (P09467 2-338 limits assumed): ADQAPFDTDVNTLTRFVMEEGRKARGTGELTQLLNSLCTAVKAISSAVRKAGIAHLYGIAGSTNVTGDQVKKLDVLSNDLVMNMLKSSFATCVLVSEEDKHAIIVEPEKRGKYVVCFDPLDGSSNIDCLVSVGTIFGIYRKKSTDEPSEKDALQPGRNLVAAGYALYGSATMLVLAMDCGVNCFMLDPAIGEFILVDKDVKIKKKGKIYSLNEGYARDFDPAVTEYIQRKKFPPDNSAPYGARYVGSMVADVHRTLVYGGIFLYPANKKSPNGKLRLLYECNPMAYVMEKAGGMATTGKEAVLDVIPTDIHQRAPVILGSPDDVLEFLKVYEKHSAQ
Protocol: […] […] Enzymatic activity was measured spectrophotometrically in reactions that coupled the formation of product (fructose 6-phosphate) to the reduction of dimethylthiazoldiphenyltetrazolium bromide (MTT) via NADP^+ and phenazine methosulfate (PMS), using phosphoglucose isomerase and glucose 6-phosphate dehydrogenase as the coupling enzymes. […] Inhibitor concentrations were varied from 0.01 μM to 10 μM. Reactions were started by the addition of 0.002 units of pure hlFBPase, and were monitored for 7 minutes at 590 nm in a Molecular Devices Plate Reader (37° C.).

Row | SMILES | IC50 [1] | IC50 [2] | melting point
1 | Nc1ccc(Br)c(-c2ccc(P(=O)(O)O)o2)n1 [Compound 15.2, 6-Amino-3-bromo-2-[2-(5-phosphono)furanyl]pyridine] | 1300 nM |  | 
2 | CC(C)Cc1sc(N)nc1-c1ccc(P(=O)(O)O)o1 [Compound 3.1, 2-amino-5-isobutyl-4-[2-(5-phosphono)furanyl]thiazole] | 180 nM |  | 
3 | CCCc1ccc(N)nc1-c1ccc(P(=O)(O)O)o1 [Compound 15.14, 6-Amino-3-propyl-2-[2-(5-phosphono)furanyl]pyridine] | 680 nM | 32 nM | 
4 | Nc1ccc(C2CC2)c(-c2ccc(P(=O)(O)O)o2)n1 [Compound 15.20, 2-Amino-5-cyclopropyl-6-[2-(5-phosphono)furanyl]pyridine] | 600 nM | 40 nM | 
5 | CCCSc1oc(N)nc1-c1ccc(P(=O)(O)O)o1 [Compound 10.43, 2-Amino-5-propylthio-4-[2-(5-phosphono)furanyl]oxazole] | 800 nM | 70 nM | 
6 | Nc1nc(NC(=O)CP(=O)(O)O)ccc1Br [Compound 18.25, 2-Amino-3-bromo-6-[(N-phosphonoacetyl)amino]pyridine] |  | 2000 nM | 
7 | CC(C)Cc1[se]c(N)nc1-c1ccc(P(=O)(O)O)o1 [Compound 3.70, 2-Amino-5-isobutyl-4-[2-(5-phosphono)furanyl]selenazole] | 150 nM | 40 nM | 
8 | CCc1cc(CC)c(-c2ccc(P(=O)(O)O)o2)nc1N [Compound 15.4, 2-amino-3,5-diethyl-6-[2-(5-phosphono)furanyl]pyridine] | 4100 nM |  | 217 to 218 °C
9 | CCc1sc(N)nc1C(=O)OCP(=O)(O)O [Compound 18.3, 2-amino-5-ethyl-4-phosphonomethoxycarbonylthiazole] | 490 nM | 50 nM | 
10 | Nc1nc(-c2ccccc2)nc(-c2ccc(P(=O)(O)O)o2)n1 [Compound 17.11, 2-Amino-4-phenyl-6-[2-(5-phosphono)furanyl]triazine] |  | 780 nM | 
11 | O=P(O)(O)c1ccc(-c2ccccn2)o1 [Compound 15.6, 2-[2-(5-Phosphono)furanyl]pyridine] | 7000 nM |  | 
12 | CC(C)Cc1cn(C)nc1-c1ccc(P(=O)(O)O)o1 [Compound 19.2, 1-methyl-4-isobutyl-3-[2-(5-phosphono)furanyl]pyrazole] |  | 400 nM | 
13 | CC(C)c1sc(N)nc1C(=O)OCP(=O)(O)O [Compound 18.20, 2-Amino-5-isopropyl-4-phosphonomethoxycarbonylthiazole] | 280 nM | 39 nM | 
14 | Cc1c(Cl)c(OCP(=O)(O)O)c2nc(N)sc2c1Cl [Compound 29.5, 2-Amino-5,7-dichloro-6-methyl-4-phosphonomethoxybenzothiazole] |  |  | > 230 °C (dec.)
15 | Nc1nc2c(OCP(=O)(O)O)cc(Cl)cc2s1 [Compound 31.3, 2-Amino-6-chloro-4-phosphonomethoxybenzothiazole] |  |  | > 250 °C (dec.)
16 | Nc1nc(C(=O)NCP(=O)(O)O)c(Br)s1 [Compound 18.11, 2-Amino-5-bromo-4-[(N-phosphonomethyl)carbamoyl]thiazole] |  | 330 nM | 
17 | Nc1ncnc2c1ncn2[C@@H]1O[C@H](COP(=O)(O)O)[C@@H](O)[C@H]1O [AMP, reference compound] | 20000 nM |  | 
18 | Nc1nc(-c2ccc(P(=O)(O)O)o2)c(-c2cccs2)s1 [Compound 6.3] | 500 nM |  | 
19 | CSc1sc(N)nc1CCC(F)(F)P(=O)(O)O [Compound 22.2, 2-Amino-5-methylthio-4-[1-(3-phosphono-3,3-difluoro)propyl]thiazole] |  | 2800 nM | 
20 | CCOC(=O)c1sc(N)nc1-c1ccc(P(=O)(O)O)o1 [Compound 3.25, 2-Amino-5-ethoxycarbonyl-4-[2-(5-phosphono)furanyl]thiazole] | 500 nM |  | 
21 | Nc1nc(-c2cccc(P(=O)(O)O)n2)cs1 [Compound 3.67, 2-Amino-4-[2-(6-phosphono)pyridyl]thiazole hydrobromide] |  | 2000 nM | 
22 | CSc1nccnc1-c1ccc(P(=O)(O)O)o1 [Compound 17.6, 3-Methylthio-2-[2-(5-phosphono)furanyl]pyrazine] |  | 620 nM | 
23 | Nc1nc2c(OCP(=O)(O)O)cc(C(=O)O)cc2s1 [Compound 29.6, 2-Amino-4-phosphonomethoxy-6-carboxybenzothiazole] |  |  | > 230 °C (dec.)
24 | CCOC(=O)c1oc(N)nc1-c1ccc(P(=O)(O)O)o1 [Compound 10.27, 2-Amino-5-ethoxycarbonyl-4-[2-(5-phosphono)furanyl]oxazole] | 2900 nM | 38 nM | 

Results, then the compound that gave them:

Row | IC50 [1] | IC50 [2] | melting point | SMILES
25 |  |  | > 250 °C (dec.) | Nc1nc2c(OCP(=O)(O)O)cc(Cl)c(Cl)c2s1 [Compound 31.4, 2-Amino-6,7-dichloro-4-phosphonomethoxybenzothiazole]
26 |  |  | > 220 °C (dec.) | CCc1cc(OCP(=O)(O)O)c2nc(N)sc2c1 [Compound 42.1, 2-Amino-6-ethyl-4-phosphonomethoxybenzothiazole]
27 |  |  | > 220 °C (dec.) | CCCOc1c(SC#N)cc(OCP(=O)(O)O)c2nc(N)sc12 [Compound 44.1, 2-Amino-7-propyloxy-6-thiocyano-4-phosphonomethoxy benzothiazole]
28 |  |  | > 250 °C (dec.) | CCc1cc(OCP(=O)(O)O)c2nc(N)sc2c1F [Compound 34.5, 2-Amino-6-ethyl-7-fluoro-4-phosphonomethoxybenzothiazole]
29 |  |  | > 250 °C (dec.) | Cc1cc(OCP(=O)(O)O)c2nc(N)sc2c1 [Compound 32.2, 2-Amino-6-methyl-4-phosphonomethoxybenzothiazole]
30 | 160 nM | 22 nM |  | CCc1c(SC#N)cc(OCP(=O)(O)O)c2nc(N)sc12 [Compound 34.1, 2-amino-7-ethyl-6-thiocyano-4-phosphonomethoxybenzothiazole]
31 |  |  | > 250 °C (dec.) | N#Cc1ccc(OCP(=O)(O)O)c2nc(N)sc12 [Compound 32.3, 2-Amino-7-cyano-4-phosphonomethoxybenzothiazole]
32 |  |  | > 250 °C (dec.) | Cc1cc(OCP(=O)(O)O)c2nc(N)sc2c1Cl [Compound 48.2, 2-Amino-7-chloro-6-methyl-4-phosphonomethoxybenzothiazole]
33 |  |  | > 230 °C (dec.) | COc1cc(OCP(=O)(O)O)c2nc(N)sc2c1 [Compound 45.1, 2-Amino-6-methoxy-4-phosphonomethoxybenzothiazole]
34 | 2100 nM |  |  | Nc1c(F)ccc2c1nc(-c1ccc(P(=O)(O)O)o1)n2CC1CC1 [Compound B, 4-Amino-5-fluoro-1-cyclopropylmethyl-2-(2-phosphono-5-furanyl)benzimidazole]
35 |  |  | > 250 °C (dec.) | CCCCCCc1c(C)cc(OCP(=O)(O)O)c2nc(N)sc12 [Compound 40.2, 2-Amino-6-methyl-7-(n-hexyl)-4-phosphonomethoxybenzothiazole]
36 |  |  | > 250 °C (dec.) | Cc1c(Cl)cc(OCP(=O)(O)O)c2nc(Cl)sc12 [Compound 37.2, 2-Chloro-4-phosphonomethoxy-6-chloro-7-methyl benzothiazole]
37 |  |  | > 250 °C (dec.) | Cc1cc(OCP(=O)(O)O)c2nc(N)sc2c1Br [Compound 47.1, 2-Amino-7-bromo-6-methyl-4-phosphonomethoxybenzothiazole]
38 | 550 nM |  |  | CCc1cc(F)c(N)c2nc(-c3ccc(P(=O)(O)O)o3)n(CC(C)C)c12 [Compound A, 4-Amino-5-fluoro-7-ethyl-1-isobutyl-2-(2-phosphono-5-furanyl)benzimidazole]
